Assay results published in PMC10609270 (Molecules, 2023).
“Also recorded” adds a separate entry of the source. Like-named read-outs stand apart in the source and are kept apart here.

How the values were obtained:
Vero CCL-81 cells [1] = assay: cells; type: cell-based, African green monkey; settings: non-infected Vero CCL-81, 48 h; for IC50: Chlorocebus sabaeus, DAPI, read-out: IC50 (ñ inf), relative cell nucleus number
in vitro = settings: African green monkey
SARS-CoV-2 [2] = assay: microbe, parasite or virus in culture; type: cell-based
Vero CCL-81 cells [3] = tested on: Vero CCL-81 cells
ACE2 [4] = type: cell-based, African green monkey; settings: compounds at IC50 (50 μM for 9); for ACE2 levels compared to vehicle: infected Vero CCL-81, Western blot; for ACE2 Levels (Vero CCL-81 Monkey Cells): infected cells
A549 cells = assay: Sulforhodamine B (SRB) cytotoxicity assay in A549 cells; type: cell-based, human; settings: for Cytotoxicity in A549 human lung cells: 48 h, SRB, five serial dilutions
Method: (§1) To determine the cytotoxic effect of the tested compounds, the SRB assay was performed according to the previously described protocols. The concentration of each compound that caused 50% of cell growth inhibition (GI50) was determined from the dose response curve. A549 cells were plated in 96-well plates at a previously determined optimal cell concentration (5 × 10^4 cells/mL) and incubated for 24 h. Then, cells were treated with different concentrations of the tested compounds for 48 h. The following procedure was accomplished as previously described. Using the Gen5^TM software (version 1.04.5), the absorbance was measured at 510 nm in a multiplate reader (Synergy^TM Mx, Biotek Instruments Inc., Winooski, VT, USA).

SARS-CoV-2 [5] = type: cell-based
ACE2 [6] = assay: ACE2 expression levels in MDA-MB-231 cells (Western blot); type: cell-based, human; settings: 10 μM, 48 h
Method: For protein expression analysis, MDA-MB-231 and Vero CCL-81 cells were seeded in 6-well plates and incubated for 24 h. Then, the cells were treated with the tested compounds at 10 μM or at their respective IC50. Cell pellets were collected after 48 h incubation, and the following lysis, quantification, and Western Blot procedures were performed as previously described, except for the following points: (i) no phosphatase inhibitor was used; (ii) a total of 15 μg of protein lysates obtained from MDA-MB-231 cells treatment or 50 μg of protein lysates obtained from Vero CCL-81 cells were loaded and separated in 10% SDS-Page gels; (iii) the transference to a nitrocellulose membrane (GE Healthcare Life science, Chalfont St Giles, UK; GE10600002) occurred for 1 h 45 min at 100 V; (iv) the primary antibodies (1:2000) used were: mouse anti-ACE2 monoclonal antibody (CL4035; Thermo Fischer Scientific; Waltham, MA, USA) and mouse anti-actin (sc-47778; Santa Cruz Biotechnology, Dallas, TX, USA).

spike protein = type: cell-based, SARS-CoV-2
[7] = Sulforhodamine B (SRB) cytotoxicity assay in A549 cells; type: cell-based, human; settings: human, A549 cells; SRB assay, 48 h; read-out: Cytotoxic IC50 (A549 Human Lung Cells)
Method: as §1

Vero CCL-81 cells [8] = assay: cells; settings: Chlorocebus sabaeus, 48 h, read-out: IC50 (inf), relative cell nucleus number
[9] = Severe acute respiratory syndrome coronavirus 2, in Primates, 48 h, read-out: Antiviral IC50 (Vero CCL-81 Monkey Cells)
[10] = Homo sapiens, A549, 48 h, read-out: GI50 (concentration that inhibits 50% of cell growth), A549, 48 h, SRB assay

Structure (SMILES)	IC50 (SARS-CoV-2 [2]; [9])	Cytotoxicity in infected Vero CCL-81 cells (number of cell nuclei) (Vero CCL-81 cells [3])	ACE2 levels compared to vehicle (ACE2 [4])	ACE2 Levels (Vero CCL-81 Monkey Cells) (ACE2 [4])	Viral titer (SARS-CoV-2 [5])	Levels of spike protein compared to vehicle (spike protein)	Relative cell number of non-infected cells (Vero CCL-81 cells [1])	Effect on cell infection by SARS-CoV-2 (SARS-CoV-2 [2])	other results
Cc1ccnc(NS(=O)(=O)c2ccc(NC3c4ccccc4Oc4ccccc43)cc2)n1 [Compound 1]	12.6 µM	some cytotoxicity	did not alter ACE2 expression significantly	−	1.4 × 10^3 FFU/mL	significantly decreased			IC50 (Vero CCL-81 cells [1]): 28.9 µM; IC50 (in vitro): 18.4 µM; Cytotoxicity in A549 human lung cells (A549 cells): did not exhibited cytotoxicity at the tested concentrations; GI50 (concentration that inhibits 50% of cell growth) (A549 cells; A549, 48 h, SRB assay): not reached with the concentrations tested; ACE2 expression levels in MDA-MB-231 cells (ACE2 [6]): did not significantly affect
Cc1cc(C)nc(NS(=O)(=O)c2ccc(NC3c4ccccc4Oc4ccccc43)cc2)n1 [Compound 2]	11.9 µM	some cytotoxicity	did not alter ACE2 expression significantly	−	1.7 × 10^3 FFU/mL	significantly decreased			IC50 (Vero CCL-81 cells [1]): 19.8 µM; IC50 (in vitro): 17.2 µM; GI50 (A549 cells; [10]): 31.9 µM; IC50 at 48 h [7]: 31.9 µM; ACE2 expression levels in MDA-MB-231 cells (ACE2 [6]): did not significantly affect
O=C(NC1c2ccccc2Oc2ccccc21)N(O)C1c2ccccc2Oc2ccccc21 [Compound 3]		significantly higher cytotoxicity in infected cells compared to non-infected cells					increased the relative cell number of non-infected cells	did not inhibit cell infection	
C[C@H](CCC(=O)N1CCOCC1)[C@H]1CC[C@H]2[C@@H]3CC[C@@H]4C[C@H](O)CC[C@]4(C)[C@H]3C[C@H](O)[C@]12C [Compound 4]	24.1 µM		did not alter ACE2 expression significantly	−	1.5 × 10^3 FFU/mL	significantly decreased	increased the relative cell number of non-infected cells		GI50 (A549 cells; A549, 48 h, SRB assay, read-out: GI50 (concentration that inhibits 50% of cell growth)): 19.8 µM; GI50 (A549 cells; [10]): 19.8 µM; IC50 at 48 h [7]: 19.8 µM; ACE2 expression levels in MDA-MB-231 cells (ACE2 [6]): did not significantly affect
Nc1cccc2c1CCN(c1ccc3c(=O)c4ccc(N5CCc6c(N)cccc6C5)cc4oc3c1)C2 [Compound 5]								did not inhibit cell infection	
O=c1c2ccc(OCc3cn(C4OC(CO)C(O)C(O)C4O)nn3)cc2oc2cc(OCc3cn(C4OC(CO)C(O)C(O)C4O)nn3)ccc12 (stereo not shown) [Compound 6]								did not inhibit cell infection	
O=c1c2ccc(OCc3cn(C4OC(COS(=O)(=O)O)C(OS(=O)(=O)O)C(OS(=O)(=O)O)C4OS(=O)(=O)O)nn3)cc2oc2cc(OCc3cn(C4OC(COS(=O)(=O)O)C(OS(=O)(=O)O)C(OS(=O)(=O)O)C4OS(=O)(=O)O)nn3)ccc12 (stereo not shown) [Compound 7]	31.7 µM	without causing cytotoxicity	slight decrease; also recorded: did not alter ACE2 expression significantly	−	6.1 × 10^3 FFU/mL	did not cause any significant change	increased the relative cell number of non-infected cells		Cytotoxicity in A549 human lung cells (A549 cells): did not exhibited cytotoxicity at the tested concentrations; Viral Titer and Spike Levels (Vero CCL-81 Monkey Cells) (SARS-CoV-2 [5]): −
O=c1c2ccccc2oc2c(O)c(OC3OC(COS(=O)(=O)O)C(OS(=O)(=O)O)C(OS(=O)(=O)O)C3OS(=O)(=O)O)ccc12 (stereo not shown) [Compound 8]								did not inhibit cell infection	
O=c1c2ccc(OCc3cn(C4OC(COS(=O)(=O)O)C(OS(=O)(=O)O)C(OS(=O)(=O)O)C4OS(=O)(=O)O)nn3)cc2oc2cc(OCc3cn(C4OC(COS(=O)(=O)O)C(OS(=O)(=O)O)C(OS(=O)(=O)O)C4OS(=O)(=O)O)nn3)ccc12 (stereo not shown) [Compound 9]		without causing cytotoxicity	did not alter ACE2 expression significantly	−	7.0 × 10^3 FFU/mL	did not cause any significant change	increased the relative cell number of non-infected cells	reduced cell infection	IC50(viral), relative number of infected cells (SARS-CoV-2 [2]): not reached at the tested concentrations; Cytotoxicity in A549 human lung cells (A549 cells): did not exhibited cytotoxicity at the tested concentrations; Viral Titer and Spike Levels (Vero CCL-81 Monkey Cells) (SARS-CoV-2 [5]): −
O=c1c2ccc(NCc3ccccc3)cc2oc2cc(OS(=O)(=O)C(F)(F)F)ccc12 [Compound 10]							increased the relative cell number of non-infected cells	did not inhibit cell infection	
Cc1ccc(C(=O)Nc2ccc(CN3CCN(C)CC3)c(C(F)(F)F)c2)cc1C#Cc1cnc2cccnn12 [Ponatinib, reference compound]		some cytotoxicity						did not inhibit cell infection	IC50 (Vero CCL-81 cells [1]): 1.36 µM; IC50 (SARS-CoV-2 [2]; Severe acute respiratory syndrome coronavirus 2, 48 h, read-out: IC50(viral), relative number of infected cells): 0.93 µM; IC50 (Vero CCL-81 cells [8]): 0.7 µM
